Key:
gastric secretion = gastric secretion by ligature of the pylorus using Shay's technique, male Sprague-Dawley rats; format: in vivo; details: rat, intraduodenal route, 50 mg/kg, acute
Procedure: 1. […] Acute treatment by intraduodenal route in a dose of 50 mg/kg.

[1] = tested on: ulcers with acetyl salicylic acid; test: activity toward ulcers with acetyl salicylic acid quantified in accordance with the Pfeiffer scale, male rats; format: in vivo; details: orally, acute

Compound: N-methyl 2-[2-(Δ2-imidazolinyl)thio]2'-benzoyl-4'-chloroacetanilide hydrochloride [Product 2]
- % Variation: decrease of the volume secreted (gastric secretion): 76%
- % Variation: increase of the intragastric pH (gastric secretion): 158%
- % Inhibition of the ulcer lesions ([1]; dose 40 mg/kg): 34%

Compound: CNC(=NCCSCc1nc[nH]c1C)NC#N [Cimetidine, N-Cyano-N'-methyl-N''-[2-[[(5-methyl-1H-imidazol-4-yl)methyl]thio]ethyl]guanidine, reference compound]
- % Variation: decrease of the volume secreted (gastric secretion): 47%
- % Variation: increase of the intragastric pH (gastric secretion): 90%
- % Inhibition of the ulcer lesions ([1]; dose 40 mg/kg): 46%

Compound: CN(C(=O)CSc1ncc[nH]1)c1ccc(Cl)cc1C(=O)c1ccccc1 [Product 15]
- % Variation: decrease of the volume secreted (gastric secretion): 50%
- % Variation: increase of the intragastric pH (gastric secretion): 181%
- % Inhibition of the ulcer lesions ([1]; dose 50 mg/kg): 35%

Compound: CN(C(=O)CSc1ncc[nH]1)c1ccc(Cl)cc1C(=O)c1ccccc1Cl [Product 7]
- % Variation: decrease of the volume secreted (gastric secretion): 70%
- % Variation: increase of the intragastric pH (gastric secretion): 118%
- % Inhibition of the ulcer lesions ([1]; dose 40 mg/kg): 46%

Compound: CN(C(=O)CSC(=N)N)c1ccc(Cl)cc1C(=O)c1ccccc1Cl [Product 16]
- % Variation: decrease of the volume secreted (gastric secretion): 79%
- % Variation: increase of the intragastric pH (gastric secretion): 153%
- % Inhibition of the ulcer lesions ([1]; dose 50 mg/kg): 32%

Compound: CN(C(=O)CSC1=NCCN1)c1ccc(Cl)cc1Cc1ccccc1 [Product 12]
- % Inhibition of the ulcer lesions ([1]; dose 40 mg/kg): 40%

Compound: N-methyl 2'-(orthochloro-α-hydroxybenzyl)-4'-chloro 2-[2-(Δ2-imidazolinyl)thio]acetanilide [Product 11]
- % Variation: decrease of the volume secreted (gastric secretion): 76%
- % Variation: increase of the intragastric pH (gastric secretion): 267%

Source: US5025015A, “Thioformamidines, and use as medicaments” (Pierre Fabre Medicament, priority 1988, dated 1991)
